Experimental data as given in US20090069370A1, “AZACYCLYLISOQUINOLINONE AND ISOINDOLINONE DERIVATIVES AS HISTAMINE-3 ANTAGONISTS” (Wyeth, priority 2007, published 2009).
Where a name gives a salt, the structure may show the parent alone.

What was measured:
[1] = target: T1, Human Histamine H3 Receptor (Homo sapiens, UniProt Q9Y5N1); experiment: Methyl histamine binding in human histamine H3 receptor cell line; conditions: membranes of stably transfected HEK293T cells; radioligand 1 nM; Ki from IC50 by Cheng-Prusoff
T1 construct: expressed in transfected cells; host or cells: HEK293T cells, stably transfected; membrane preparation
T1 sequence (Q9Y5N1 whole entry): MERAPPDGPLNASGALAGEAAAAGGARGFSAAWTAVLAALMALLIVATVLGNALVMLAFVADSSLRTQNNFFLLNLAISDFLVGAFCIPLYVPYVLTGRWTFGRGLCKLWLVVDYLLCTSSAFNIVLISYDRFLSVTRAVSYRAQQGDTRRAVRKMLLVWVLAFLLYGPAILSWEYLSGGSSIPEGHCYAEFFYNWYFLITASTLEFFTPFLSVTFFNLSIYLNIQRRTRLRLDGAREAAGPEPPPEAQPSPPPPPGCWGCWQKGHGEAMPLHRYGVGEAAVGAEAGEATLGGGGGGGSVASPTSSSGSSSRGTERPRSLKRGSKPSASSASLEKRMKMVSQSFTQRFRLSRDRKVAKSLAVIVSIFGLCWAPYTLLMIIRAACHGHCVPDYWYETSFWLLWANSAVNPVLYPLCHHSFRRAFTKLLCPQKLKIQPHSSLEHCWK
Protocol: Evaluation of Methyl Histamine Binding in Human Histamine H3 Receptor Cell Line
The affinity of test compounds for the histamine 3 (H3) receptor is evaluated in the following manner. Stably transfected HEK293T cells are grown in DMEM containing 10% heat inactivated FBS and G-418 (500 ug/ml). Cells are scraped from the plate, transferred to centrifuge tubes, washed one time in PBS by centrifugation in a Sorvall RT7 Plus centrifuge (2000 rpm 10 minutes, 4° C.). The resulting pellets are stored at −80° C. until ready for use. Cells are re-suspended in buffer (50 mM Tris pH=7.5) and placed in a Dounce homogenizer, douncing ten times to homogenize cells. The homogenate is spun down by centrifugation (Sorvall RT7 Plus, 1800 rpm 10 minutes, 4° C.). The supernatant is placed in a Corex tube and spun down by centrifugation (Sorvall RC 5c Plus, 17,000 rpm 20 minutes, 4° C.). The pellet is resuspended in buffer (50 mM Tris, pH 7.5). Protein concentration (ug/ul) is determined using the Micro-BCA Protein Determination. The binding assay is set up in a 96 well microtiter plate in a total volume of 250 uL. Non-specific binding is determined in the presence of 10 uM clobenpropit. The final radioligand concentration is 1 nM. The test compound is serially diluted using the Beckman Biomek2000 to a final approximate range of 100 uM to 100 pM. Membranes are suspended in buffer, homogenized in 2 bursts of ten seconds using a Vitris mechanical homogenizer set at power setting 5. Ten μg of membranes are added to each well. Following a one hour incubation at 30° C., the reaction is terminated by the addition of ice cold buffer and rapid filtration with a Packard Filtermate Harvester through a GF/B filter pre-soaked with 1% PEI for one hour. The plate is dried for one hour at 37° C. and 60 μL Microscint Scintillant is added to each well. The CPM per well is measured on a Packard Top Count NXT. Ki values are determined in nM. The Ki is calculated from the IC50 (i.e. the concentration of competing ligand which displaces 50% of the specific binding of the radioligand). CPM values are expressed as % specific binding and plotted vs compound concentration. A curve is fitted using a four-parameter logistic fit and the IC50 value is determined. The Ki is calculated from this using the Cheng-Prusoff equation: […]=IC50/1+(L/Kd) where L=concentration of free radioligand used in the assay, and Kd is the dissociation constant of the radioligand for the receptor. L is determined for each experiment by counting an aliquot of the diluted radioligand (corresponding to that added to each well) and the Kd has previously been determined under identical conditions for this cell line/radioligand.

`O=C(O)c1ccc(Oc2ccc3c(c2)CCN(C2CCN(C4CCC4)CC2)C3=O)cc1` [Example 2, 4-{[2-(1-cyclobutylpiperidin-4-yl)-1-oxo-1,2,3,4-tetrahydroiso-quinolin-6-yl]oxy}benzoic acid] gave a melting point of 255 to 256 °C and a Ki [1] of 50.1 to 100 nM.
Work on `COC(=O)c1ccc(COc2ccc3c(c2)CCN(C2CCN(C4CCC4)CC2)C3=O)cc1` [Example 13, methyl 4-({[2-(1-Cyclobutylpiperidin-4-yl)-1-oxo-1,2,3,4-tetrahydroisoquinolin-6-yl]oxy}methyl)benzoate] yielded a melting point of 165 to 166 °C and a Ki [1] of 10.1 to 25 nM.
Compound `O=C(O)c1ccc(COc2ccc3c(c2)CCN(C2CCN(C4CCC4)CC2)C3=O)cc1` [Example 14, 4-({[2-(1-cyclobutylpiperidin-4-yl)-1-oxo-1,2,3,4-tetrahydroiso-quinolin-6-yl]oxy}methyl)benzoic acid] has a melting point of 269 to 270 °C and a Ki [1] of 10.1 to 25 nM.
Work on `O=C(O)c1ccc(Oc2ccc3c(c2)CCN([C@@H]2CCN(C4CCCC4)C2)C3=O)cc1` [Example 36, (R)-4-(2-(1-cyclopentylpyrrolidin-3-yl)-1-oxo-1,2,3,4-tetrahydro-isoquinolin-6-yloxy)benzoic acid] yielded a melting point of 170 to 173 °C and a Ki [1] of 50.1 to 100 nM.
`CC(C)N1CCC[C@@H](N2CCc3cc(-c4ccc(C(=O)N5CCCC5)cc4)ccc3C2=O)C1` [Example 72, 2-[(3R)-1-isopropylpiperidin-3-yl]-6-[4-(pyrrolidin-1-ylcarbonyl)phenyl]-3,4-dihydroisoquinolin-1(2H)-one] gave a Ki [1] of over 100 nM.
For `C[C@H]1CCCN1C(=O)c1ccc(-c2ccc3c(c2)CCN([C@@H]2CCN(C4CCC4)C2)C3=O)c(F)c1` [Example 73, 2-[(3R)-1-cyclobutylpyrrolidin-3-yl]-6-(2-fluoro-4-{[(2S)-2-methylpyrrolidin-1-yl]carbonyl}phenyl)-3,4-dihydroisoquinolin-1(2H)-one], the Ki [1] was at most 10 nM.
Work on `O=C(NC1CCC1)c1ccc(-c2ccc3c(c2)CCN([C@@H]2CCN(C4CCC4)C2)C3=O)c(F)c1` [Example 74, N-cyclobutyl-4-{2-[(3R)-1-cyclobutylpyrrolidin-3-yl]-1-oxo-1,2,3,4-tetrahydroisoquinolin-6-yl}-3-fluorobenzamide] yielded a Ki [1] of at most 10 nM.
For `CNC(=O)c1ccc(-c2ccc3c(c2)CCN([C@@H]2CCN(C4CCC4)C2)C3=O)c(F)c1` [Example 75, 4-{2-[(3R)-1-cyclobutylpyrrolidin-3-yl]-1-oxo-1,2,3,4-tetrahydroisoquinolin-6-yl}-3-fluoro-N-methylbenzamide], the Ki [1] was at most 10 nM.
For `C[C@@H]1CCCN1C(=O)c1ccc(-c2ccc3c(c2)CCN([C@@H]2CCN(C4CCC4)C2)C3=O)c(F)c1` [Example 76, 2-[(3R)-1-cyclobutylpyrrolidin-3-yl]-6-(2-fluoro-4-{[(2R)-2-methylpyrrolidin-1-yl]carbonyl}phenyl)-3,4-dihydroisoquinolin-1(2H)-one], the Ki [1] was at most 10 nM.
`CCNC(=O)c1ccc(-c2ccc3c(c2)CCN([C@@H]2CCN(C4CCC4)C2)C3=O)c(F)c1` [Example 77, 4-{2-[(3R)-1-cyclobutylpyrrolidin-3-yl]-1-oxo-1,2,3,4-tetrahydroisoquinolin-6-yl}-N-ethyl-3-fluorobenzamide] showed a Ki [1] of at most 10 nM.
For `CN(C)C(=O)c1ccc(-c2ccc3c(c2)CCN([C@@H]2CCN(C4CCC4)C2)C3=O)c(F)c1` [Example 78, 4-{2-[(3R)-1-cyclobutylpyrrolidin-3-yl]-1-oxo-1,2,3,4-tetrahydroisoquinolin-6-yl}-3-fluoro-N,N-dimethylbenzamide], the Ki [1] was at most 10 nM.
Work on `O=C(c1ccc(-c2ccc3c(c2)CCN([C@@H]2CCN(C4CCC4)C2)C3=O)c(F)c1)N1CCCC1` [Example 79, 2-[(3R)-1-cyclobutylpyrrolidin-3-yl]-6-[2-fluoro-4-(pyrrolidin-1-ylcarbonyl)phenyl]-3,4-dihydroisoquinolin-1(2H)-one] yielded a Ki [1] of at most 10 nM.
With `O=C(NC1CCCC1)c1ccc(-c2ccc3c(c2)CCN([C@@H]2CCN(C4CCC4)C2)C3=O)c(F)c1` [Example 80, 4-{2-[(3R)-1-cyclobutylpyrrolidin-3-yl]-1-oxo-1,2,3,4-tetrahydroisoquinolin-6-yl}-N-cyclopentyl-3-fluorobenzamide] the Ki [1] was at most 10 nM.
`O=C(NC1CC1)c1ccc(-c2ccc3c(c2)CCN([C@@H]2CCN(C4CCC4)C2)C3=O)c(F)c1` [Example 81, 4-{2-[(3R)-1-cyclobutylpyrrolidin-3-yl]-1-oxo-1,2,3,4-tetrahydroisoquinolin-6-yl}-N-cyclopropyl-3-fluorobenzamide] showed a Ki [1] of at most 10 nM.
`CNC(=O)c1ccc(-c2ccc3c(c2)CCN([C@@H]2CCN(C(C)C)C2)C3=O)cc1` [Example 82] showed a Ki [1] of at most 10 nM.
With `CCNC(=O)c1ccc(-c2ccc3c(c2)CCN([C@@H]2CCN(C(C)C)C2)C3=O)cc1` [Example 83, N-ethyl-4-{2-[(3R)-1-isopropylpyrrolidin-3-yl]-1-oxo-1,2,3,4-tetrahydroisoquinolin-6-yl}benzamide] the Ki [1] was at most 10 nM.
Compound `CC(C)N1CC[C@@H](N2CCc3cc(-c4ccc(C(=O)N5CCCC5)cc4F)ccc3C2=O)C1` [Example 84, 6-[2-fluoro-4-(pyrrolidin-1-ylcarbonyl)phenyl]-2-[(3R)-1-isopropylpyrrolidin-3-yl]-3,4-dihydroisoquinolin-1(2H)-one] has a Ki [1] of at most 10 nM.
With `CNC(=O)c1ccc(-c2ccc3c(c2)CCN([C@@H]2CCN(C(C)C)C2)C3=O)c(F)c1` [Example 85, 3-fluoro-4-{2-[(3R)-1-isopropylpyrrolidin-3-yl]-1-oxo-1,2,3,4-tetrahydroisoquinolin-6-yl}-N-methylbenzamide] the Ki [1] was at most 10 nM.
`CCNC(=O)c1ccc(-c2ccc3c(c2)CCN([C@@H]2CCN(C(C)C)C2)C3=O)c(F)c1` [Example 86, N-ethyl-3-fluoro-4-{2-[(3R)-1-isopropylpyrrolidin-3-yl]-1-oxo-1,2,3,4-tetrahydroisoquinolin-6-yl}benzamide] gave a Ki [1] of at most 10 nM.
Work on `O=C(c1ccc2c(c1)CCN([C@@H]1CCN(C3CCC3)C1)C2=O)N1CCCC1` [Example 87, 2-[(3R)-1-cyclobutylpyrrolidin-3-yl]-6-(pyrrolidin-1-ylcarbonyl)-3,4-dihydroisoquinolin-1(2H)-one hydrochloride] yielded a Ki [1] of 25.1 to 50 nM.
With `O=C(NC1CCCC1)c1ccc2c(c1)CCN([C@@H]1CCN(C3CCC3)C1)C2=O` [Example 88, 2-[(3R)-1-cyclobutylpyrrolidin-3-yl]-N-cyclopentyl-1-oxo-1,2,3,4-tetrahydroisoquinoline-6-carboxamide hydrochloride] the Ki [1] was 10.1 to 25 nM.
For `O=C1NCCc2cc(-c3ccc4c(c3)CCN([C@@H]3CCN(C5CCC5)C3)C4=O)ccc21` [Example 89, (R)-2-(1-cyclobutylpyrrolidin-3-yl)-3,3′,4,4′-tetrahydro-6,6′-biisoquinoline-1,1′(2H,2′H)-dione hydrochloride], the Ki [1] was at most 10 nM.
`CNC(=O)c1ccc(-c2ccc3c(c2)CN([C@@H]2CCN(C4CCC4)C2)C3=O)cc1` [Example 91, (R)-4-(2-(1-cyclobutylpyrrolidin-3-yl)-1-oxoisoindolin-5-yl)-N-methylbenzamide hydrochloride] gave a Ki [1] of 10.1 to 25 nM.
With `O=C(c1ccc(-c2ccc3c(c2)CN([C@@H]2CCN(C4CCC4)C2)C3=O)cc1)N1CCCC1` [Example 92, (R)-2-(1-cyclobutylpyrrolidin-3-yl)-5-(4-(pyrrolidine-1-carbonyl)-phenyl)isoindolin-1-one hydrochloride] the Ki [1] was at most 10 nM.
